According to ChEMBL document CHEMBL1201862, “PubChem BioAssay data set” (2004):
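Assay format: 96-well plates, 48-hour exposure. GI50: concentration for 50% inhibition of growth.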 Active and inactive are the calls of the source. No stated cut-off is given here; in the data, active = GI50 up to about 1.1 µM and inactive = higher.

What was measured:
Assay in all cases: growth of human tumour cells (NCI), 48 h
[1] = system: ACHN
[2] = system: MDA-MB-435
[3] = system: A498
[4] = system: CAKI-1
[5] = system: IGROV-1
[6] = system: A549
[7] = system: SNB-75
[8] = system: HCT-116
[9] = system: 786-0
[10] = system: MDA-N
[11] = system: UO-31
[12] = system: HL-60
[13] = system: K562
[14] = system: SK-MEL-2
[15] = system: RPMI-8226
[16] = system: HCT-15
[17] = system: UACC-257
[18] = system: MCF7
[19] = system: NCI-H23
[20] = system: Hs-578T

Compound	GI50 [1]	GI50 [2]	GI50 [3]	GI50 [4]	GI50 [5]	GI50 [6]	GI50 [7]	GI50 [8]	GI50 [9]	GI50 [10]	GI50 [11]	GI50 [12]	GI50 [13]	GI50 [14]	GI50 [15]	GI50 [16] [µM]	GI50 [17]	GI50 [18]	GI50 [19]	GI50 [20]
COc1ccc(OC)c2nc3c(C(=O)NCCN(C)C)cccc3nc12	1.98 µM (inactive)	5.11 µM (inactive)	13.9 µM (inactive)	3.22 µM (inactive)	4.59 µM (inactive)	3.37 µM (inactive)	11.7 µM (inactive)	1.79 µM (inactive)	3.05 µM (inactive)	4.52 µM (inactive)	2.72 µM (inactive)	3.18 µM (inactive)	3 µM (inactive)	8.45 µM (inactive)	2.84 µM (inactive)	4.74	3.88 µM (inactive)	3.48 µM (inactive)	3.7 µM (inactive)	5.89 µM (inactive)
COC(=O)C(CCSC)NC(=O)Cc1ccc(C(=O)c2ccccc2)cc1 (stereo not given)	> 100 µM (inactive)	29.1 µM (inactive)	> 100 µM (inactive)	70.3 µM (inactive)	64.3 µM (inactive)	38.4 µM (inactive)	40.6 µM (inactive)	39.7 µM (inactive)	> 100 µM (inactive)	14.9 µM (inactive)	53.7 µM (inactive)	32.7 µM (inactive)	37.8 µM (inactive)	48.6 µM (inactive)	46.5 µM (inactive)	36.1	> 100 µM (inactive)	47.3 µM (inactive)	44.8 µM (inactive)	33.1 µM (inactive)
N/C(=N\Nc1ccc(Cl)cc1)c1cnccn1	> 100 µM (inactive)	16.3 µM (inactive)	> 100 µM (inactive)	> 100 µM (inactive)	> 100 µM (inactive)	> 100 µM (inactive)	> 100 µM (inactive)	22.4 µM (inactive)	68.7 µM (inactive)	10.4 µM (inactive)	50.7 µM (inactive)	3.48 µM (inactive)	3.85 µM (inactive)	58.1 µM (inactive)	78.3 µM (inactive)	21.4	28.3 µM (inactive)	38.5 µM (inactive)	> 100 µM (inactive)	> 100 µM (inactive)
CN(C)c1ccc(/C=C(\NC(=O)c2ccccc2)C(=O)NC(Cc2c[nH]c3ccccc23)C(=O)O)cc1 (stereo not given)	> 100 µM (inactive)	> 100 µM (inactive)	> 100 µM (inactive)	> 100 µM (inactive)	> 100 µM (inactive)	> 100 µM (inactive)	0.226 µM (active)	> 100 µM (inactive)	> 100 µM (inactive)	> 100 µM (inactive)	> 100 µM (inactive)	> 100 µM (inactive)	> 100 µM (inactive)	> 100 µM (inactive)	> 100 µM (inactive)	> 100	69 µM (inactive)	> 100 µM (inactive)	> 100 µM (inactive)	> 100 µM (inactive)
Cn1c(=O)oc2cc(Br)ccc21	> 100 µM (inactive)	> 100 µM (inactive)	> 100 µM (inactive)	> 100 µM (inactive)	> 100 µM (inactive)	> 100 µM (inactive)	> 100 µM (inactive)	> 100 µM (inactive)	> 100 µM (inactive)	> 100 µM (inactive)	> 100 µM (inactive)	> 100 µM (inactive)	> 100 µM (inactive)	> 100 µM (inactive)	> 100 µM (inactive)	> 100	> 100 µM (inactive)	> 100 µM (inactive)	> 100 µM (inactive)	> 100 µM (inactive)
COc1cc(C2C=C(c3ccccc3)Oc3cc4c(cc32)OCO4)cc(OC)c1OC (stereo not given)	1.53 µM (inactive)	0.188 µM (active)	0.495 µM (active)	0.507 µM (active)	0.403 µM (active)	0.2 µM (active)	2.4 µM (inactive)	0.311 µM (active)	0.386 µM (active)	0.249 µM (active)	1.19 µM (inactive)	0.521 µM (active)	0.435 µM (active)	1.91 µM (inactive)	0.555 µM (active)	0.324	3.33 µM (inactive)	0.409 µM (active)	0.436 µM (active)	0.348 µM (active)
O=c1[nH]cnc2c1ncn2[C@@H]1C[C@H]1CO	> 100 µM (inactive)	> 100 µM (inactive)	> 100 µM (inactive)	> 100 µM (inactive)	> 100 µM (inactive)	> 100 µM (inactive)	> 100 µM (inactive)	> 100 µM (inactive)	> 100 µM (inactive)	> 100 µM (inactive)	> 100 µM (inactive)	> 100 µM (inactive)	> 100 µM (inactive)	> 100 µM (inactive)	> 100 µM (inactive)	> 100	> 100 µM (inactive)	> 100 µM (inactive)	> 100 µM (inactive)	> 100 µM (inactive)
O=[N+]([O-])c1ccc2c3c1[C@@H]1O[C@@H]1c1cccc(c1-3)[C@@H]1O[C@H]21	1.94 µM (inactive)	2.08 µM (inactive)	3.23 µM (inactive)	1.61 µM (inactive)	1.24 µM (inactive)	6.76 µM (inactive)	5.68 µM (inactive)	2.42 µM (inactive)	2.47 µM (inactive)	3.04 µM (inactive)	2.07 µM (inactive)	3.1 µM (inactive)	4.2 µM (inactive)	6.14 µM (inactive)	1.88 µM (inactive)	2.57	6.87 µM (inactive)	3.55 µM (inactive)	3.94 µM (inactive)	3.1 µM (inactive)
COC1(C)Cc2c(c(C)c(O)c3c2C(=O)C=C(Cl)C3=O)O1 (stereo not given)	25.4 µM (inactive)	> 100 µM (inactive)	> 100 µM (inactive)	20.4 µM (inactive)	55.5 µM (inactive)	> 100 µM (inactive)	> 100 µM (inactive)	44.5 µM (inactive)	> 100 µM (inactive)	34.9 µM (inactive)	> 87.3 µM (inactive)	3.48 µM (inactive)	8.75 µM (inactive)	> 84.1 µM (inactive)	14.7 µM (inactive)	45.8	> 56.5 µM (inactive)	41.8 µM (inactive)	66.8 µM (inactive)	23.5 µM (inactive)
